Experiments:
IGROV1 cells = assay: Clonogenic assay, IGROV1; format: cell-based, human; conditions: 2 hour exposure, 9-day chase
Protocol: IGROV1 cells seeded in 6-well plates (1000 cells/well) were exposed for 2 hours to Conjugate 5 at 1, 10, and 100 nM and followed by a 9-day chase in drug-free medium. Afterwards, the cells were washed with PBS and fixed for 5 minutes in a 3:1 methanol:acetic acid solution. The cells were then stained with 0.5% crystal violet/methanol solution for 15 minutes and washed with tap water. After a drying step, the colonies were photographed and counted using the ImageJ software.
Afterwards, the cells were washed with PBS and fixed for 5 minutes in a 3:1 methanol:acetic acid solution. The cells were then stained with 0.5% crystal violet/methanol solution for 15 minutes and washed with tap water. After a drying step, the colonies were photographed and counted using the ImageJ software.

4T1p tumor cells = assay: XTT cell viability assay, 4T1p; format: cell-based, mouse; conditions: 2 hours exposure up to 100 nM, 96 hour chase
Protocol: The FRα− and FRα+ expressing cell lines utilized to evaluate Conjugate 5 activity in-vitro and/or ex-vivo studies were (1) 4T1p, a mouse breast cancer cell line that resembles triple negative breast cancer in humans, (2) 4T1-C12, 4T1p stably transfected with a mouse FRa, and (3) IGROV1, a human ovarian carcinoma cell line that expresses the human FRα. 4T1p and 4T1-C12 cells were grown respectively in a folate-replete or folate-free RPMI1640 medium (Gibco BRL) (FFRPMI) containing 10% heat-inactivated fetal calf serum (HIFCS) and antibiotics, and maintained under a 5% CO2 atmosphere using standard cell culture techniques. IGROV1 cells were grown in the same medium as 4T1-C12.
4T1p and 4T1-C12 tumor cells in 96-well plates (20,000 cells/well) were treated with 10-fold serial dilutions of Conjugate 5 (100 nM) in FFRPMI medium. After a 2 hour exposure, the drug-containing media were replaced and the cells were washed and allowed to incubate further for 96 hours. The cell viability was assessed by adding XTT (2,3-bis(2-methoxy-4-nitro-5-sulfo-phenyl)-2H-tetrazolium-5-carboxanilide) to the culture medium for 2 hours following the manufacturer's instructions. All results were expressed as % absorbance (minus background) relative to the untreated control cells.

KB tumor = assay: In vivo activity against KB tumors in mice; conditions: 0.5 μmol/kg once a week for two weeks
From the text: Treatment with 0.5 μmol/kg of Conjugate 5, once a week for two weeks also produced maximal anti-tumor activity with 100% cures. Change in weight is shown in FIG. 2B for test mice dosed at 0.5 μmol/kg Conjugate 5 SIW for two weeks (▴) compared to untreated control (▪).

ST070 ovarian PDX tumors = assay: In vivo activity against ovarian tumors; set-up: species or system mice
Protocol: (§1) Mice were maintained and tumor volumes were measures according to Method 3.
(§2) Primary human Ovarian model ST070 fragments (2-4 mm in diameter) were inoculated subcutaneously at the right flank of each mouse. Mice were randomized into experimental groups of 7 mice each and test articles were injected through the lateral tail vein under sterile conditions in a volume of […] of phosphate-buffered saline (PBS).

TNBC PDX tumor = assay: In vivo activity against triple negative breast tumors (FIG. 10); set-up: species or system mice; conditions: Conjugate 5 0.27 μmol/kg BIW two weeks; erubulin mesylate 1.0 μmol/kg SIW two weeks
Protocol: as §1
as §2, with “TNBC” for “Ovarian”, “ST502 (2-4 mm in diameter) or primary human TNBC model ST738” for “ST070 fragments”

[1] = system: 4T1-C12 tumor (FRα-positive); assay: Single-agent activity in vivo, 4T1-C12 mammary tumors; set-up: species or system mice; conditions: 0.2 μmol/kg i.v., BIW×4 doses
From the text: (§3) Female Balb/c mice (4T1p, 4T1-C12) were purchased from Envigo (Indianapolis, Ind.) and used when they reached 6-8 weeks of age. The mice were fed a folate-deficient diet (TestDiet, St. Louis, Mo.) on the day of arrival.
(§4) Solid tumors in Balb/c mice were generated by subcutaneous implantation of cultured cells at 5×10^5 (4T1p) and 2×10^6 (4T1-C12) per animal in the mammary region.
(§5) Starting on day 0, mice with mammary 4T1p (˜78.3±12.1 mm^3) and 4T1-C12 (˜70.1±14.1 mm^3) were scheduled to receive Conjugate 5 at 200 nmol/kg, biweekly for two weeks. 4T1p tumor bearing mice received a total of 3 doses only and 4T1-C12 tumor bearing mice received a total of 4 doses as planned. Mice were weighed and measured for tumor size 3 times a week. The tumor volumes were calculated by the following formula: V=0.5×a×b^2, where a is the longest axis across the tumor, and b is the shorter axis perpendicular to a. The animals were euthanized when the tumor volume reached ˜1500 mm^3. Mice were also monitored closely for the evidence of toxicity such as respiratory distress, mobility, weight loss, diarrhea, hunched posture, and failure to eat. The last Conjugate 5 dose in the 4T1p tumor-bearing mice was skipped due to weight loss.

ID8-C115 ascites tumors = assay: Conjugate 5 versus EC1456 against various stages of ID8-C115 ascites tumors, survival; format: in vivo, mice
From the text: Mouse ascites tumors were generated by intra-peritoneal implantation of cultured cells at 5×10^6 in C57BL/6 mice.
In a first experiment (P-1836), all treatment started 7 days after the tumors were implanted. The mice were intravenously dosed with Conjugate 5 at 0.1 μmol/kg twice-per-week for a total of 6 doses (BIW×3). […] In a second experiment (P-1846), Conjugate 5 treatment started 21 days after the tumors were implanted. The mice were intravenously dosed with Conjugate 5 at 0.1 μmol/kg for 3 consecutive days each week for 3 weeks (D0-2×3, 9 doses). […] In a third experiment (P-1861), Conjugate 5 treatment started 35 days after the tumors were implanted. The mice were intravenously dosed with Conjugate 5 at 0.3 μmol/kg once-a-week for 2 consecutive weeks (SIW×2, 2 doses). […] In a fourth experiment (P-1836), Conjugate 5 treatment started 43 days after the tumors were implanted. The mice were intravenously dosed with Conjugate 5 at 0.3 μmol/kg once-a-week for 2 consecutive weeks (SIW×2, 2 doses). […] All mice were weighed 3 times/week and assessed for any clinical sign of swollen bellies indicative of ascites formation and for evidence of toxicity including respiratory distress, mobility, weight loss, diarrhea, hunched posture, and failure to eat. Once the animals developed ascites, they were monitored daily and euthanized when ascites became severe (rounded and walking on tip toes).

[2] = system: 4T1p tumor (FRα-negative); assay: Single-agent activity in vivo, 4T1p mammary tumors; set-up: species or system mice; conditions: 0.2 μmol/kg i.v., BIW×3 doses
From the text: as §3, §4, §5

Structure (SMILES): C=C1C[C@H]2C=Nc3cc(OCCCCCOc4cc(N)c(C(=O)N5CC(=C)C[C@H]5C5OCCN5C(=O)OCC(C)(C)SSCCC(=O)NCCNC(=O)CCOCCOCCOCCOCCNC(=O)CCN5C(=O)CC(SC[C@H](NC(=O)[C@H](CC(=O)O)NC(=O)[C@H](CC(=O)O)NC(=O)[C@H](CCCNC(=N)N)NC(=O)[C@H](CC(=O)O)NC(=O)CC[C@H](NC(=O)c6ccc(NCc7cnc8nc(N)[nH]c(=O)c8n7)cc6)C(=O)O)C(=O)O)C5=O)cc4OC)c(OC)cc3C(=O)N2C1 (some centres unmarked) [Conjugate 5]
- clonogenic activity (IGROV1 cells; 1, 10, 100 nM): potent activity at all concentrations
- clonogenic activity, comparison Conjugate 5 and EC1456 (IGROV1 cells; 1, 10, 100, 1000 nM): potent activity at all concentrations tested
- clonogenic anti-tumor activity in the presence of excess folic acid (IGROV1 cells; 1 and 10 nM, excess folic acid): significantly reduced
- activity against FRα-negative 4T1p tumor cell in-vitro (4T1p tumor cells): completely inactive
- cures (KB tumor): 100%
- cure (number of mice) (ST070 ovarian PDX tumors; 0.5 μmol/kg SIW for two weeks, n=7): 7
- ovarian PDX tumor size compared to untreated control (ST070 ovarian PDX tumors; Conjugate 5 0.5 μmol/kg SIW, EC1456 4.0 μmol/kg SIW, paclitaxel 15 mg/kg SIW, two weeks): decreased ovarian PDX tumor size
- TNBC PDX tumor size compared to untreated control (TNBC PDX tumor): decreased TNBC PDX tumor size
- body weight [1]: significant weight loss
- median survival time (ID8-C115 ascites tumors; 7-day-old tumors, Conjugate 5 0.1 mol/kg BIW×6 doses, EC1456 2 mol/kg BIW×6 doses, untreated ~46 days): ~77 days post tumor implant
- toxicity observed (ID8-C115 ascites tumors; 21-day-old tumors, Conjugate 5 0.1 mol/kg D0-2×3, 9 doses, EC1456 2 μmol/kg D0-2×, 9 doses): mild ataxia
- median survival time (ID8-C115 ascites tumors; 21-day-old tumors, Conjugate 5 0.1 mol/kg D0-2×3, 9 doses, EC1456 2 μmol/kg D0-2×, 9 doses (two remaining animals), untreated ~46 days): ~76 days
- median survival time (ID8-C115 ascites tumors; 35-day-old tumors, Conjugate 5 0.3 μmol/kg SIW×2, 2 doses, EC1456 2 mol/kg D0-2×2, 4 doses, untreated ~42 days): ~64 days post tumor implant
- median survival time (ID8-C115 ascites tumors; 43-day-old tumors, Conjugate 5 0.3 μmol/kg SIW×2, 2 doses, EC1456 2 mol/kg D0-2×1, 3 doses, untreated ~46 days): ~57 days post tumor implant
- body weight [2]: significant weight loss
- complete responders [2]: no complete responders
- tumor sensitivity / tumor growth [2]: partial sensitivity

Source: patent publication US20200038514A1, “FOLATE CONJUGATE FOR USE IN TARGETING TUMOR ASSOCIATED MACROPHAGES” (ENDOCYTE, INC., priority 2016, published 2020)
